# Ends that are not written are not given here.
# B1: IFNγR2263-337: cytoplasmic domain of IFNγR2 (amino acids 263-337); recombinant form fused with thioredoxin (rTrx) (protein)
# chain: AGACFFLVLKYRGLIKYWFHTPPSIPLQIEEYLKDPTQPILEALDKDSSPKDDVWDSVSIISFPEKEQEDVLQTL
# modifications: left off: large carriers
# Legend:
# [1] = test system: organotypic hippocampal slice cultures; assay: Neuronal cell death in organotypic hippocampal slice cultures (PI uptake, Nissl staining); type: cell-based; conditions: for Suppression of oligomeric Aβ-induced neuronal loss (Nissl staining): peptide co-applied with oligomeric Aβ; for Prevention of oligomeric Aβ-induced PI uptake: peptide co-applied with oligomeric Aβ (500 nM), after 24-h treatment
# Description: (§1) Organotypic hippocampal slice cultures were prepared as described previously. Briefly, hippocampal slice cultures were prepared using 7-10-day-old mouse pups. Slices were cut at 400 μm on a Mcllwain tissue chopper, transferred to Millicell membrane inserts ([…]; Millipore), and placed in 6-well culture plates. The culture medium consisted of basal Eagle's medium with Earle's balanced salt solution, 20% heat-inactivated horse serum, enriched with 5.6 mM glucose. The medium was changed every other day. The effect of oligomeric Ab (500 nM) was tested in the slices that had been maintained for 11-14 days in vitro. Aβ oligomer or reversed sequence of Aβ1-42 control peptide (Aβ42-1) was added to cultures in serum-free medium and, after the treatment, the hippocampal slices were rinsed twice in ice-cold phosphate-buffered saline (PBS), and then harvested by removing the Millicell membrane insert.
# To determine neuronal cell death in the hippocampal slices, PI (5 μg/ml) was added to the slice culture medium. Images were acquired through an AxioCam camera on an Axiovert 200M microscope (Zeiss, Oberkochen, Germany). Fluorescent intensity was measured using Image J (NIH, Bethesda, Md., USA). Hematoxylin and eosin (H&E) and Niss1 staining was also performed for routine histochemical and morphological analyses.
# [2] = test system: hippocampal slice cultures; assay: Cell permeability of FITC-tagged peptides in hippocampal slice cultures; type: cell-based, mouse; conditions: after 24-h treatment
# Text: In this study, in addition to utilizing Bax knockout (KO) mice, we utilized BIP to examine the role of Bax in oligomeric Aβ-induced neurotoxicity. BIP used in this study consists of five amino acids, VPTLK, a sequence that is known to inhibit Bax activation. […] Both peptides were tagged with fluorescein isothiocyanate (FITC) so that intracellular delivery can be tracked by FITC signal.
# Bax = biological target: T1, Bax (Mus musculus, UniProt Q07813); assay: Immunocytochemistry with 6A7 antibody (active Bax) in hippocampal slice cultures; type: cell-based
# T1 construct: from tissue; host or cells: mouse hippocampal slice culture
# T1 sequence (Q07813 whole entry): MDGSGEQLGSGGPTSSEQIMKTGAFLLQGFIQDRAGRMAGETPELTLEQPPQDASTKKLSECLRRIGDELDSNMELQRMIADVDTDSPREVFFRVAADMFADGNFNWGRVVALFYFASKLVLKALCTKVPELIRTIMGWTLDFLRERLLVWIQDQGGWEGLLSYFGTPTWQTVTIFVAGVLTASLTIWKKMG
# Description: as §1
# Cultured hippocampal slices were rinsed with icecold PBS once and fixed for 2 h with 4% paraformaldehayde in 0.1M PBS. After washing with PBS, sections were permeabilized overnight with PBS containing 0.2% Triton X-100. At the end of the permeabilization blocking solution, 10% normal goat serum in PBS was applied for 4 h at room temperature. After washing with PBS, primary antibody was added and incubated for 24-48 h at 4° C. […] Images were then analyzed with the Axiovision software (Zeiss).
# [3] = test system: Bim, Bcl-2, Bax, caspase-3; assay: Western blot analysis of Bim, Bcl-2, Bax and cleaved caspase-3 in hippocampal slice cultures; type: cell-based, mouse
# Description: as §1
# The protein concentration was determined by BCA assay (Pierce, Rockford, Ill., USA). The extracted proteins were separated on 10 or 12% SDS-polyacrylamide gel and transferred onto polyvinylidene difluoride membranes. The blots were blocked with 10% non-fat milk in TBS-T for 1 h at room temperature, and then treated with primary antibodies diluted with 1% non-fat milk and incubated overnight at 4° C. The following antibodies were used for western blot analysis: anti-caspase-3 (1:1000; Santa Cruz Biotechnology, Santa Cruz, Calif., USA), anti-Bim (1:1000; Stressgen, Farmingdale, N.Y., USA), anti-Bcl-2 (1:1000; Stressgen) and 6A7 (conformational specific Bax antibody) (1:1000; BD Pharmingen, San Diego, Calif., USA).
# [4] = test system: C57BL6/J mice hippocampus; assay: Intrahippocampal injection of oligomeric Aβ in mice; type: in vivo, mouse
# Description: C57BL6/J mice (The Jackson Laboratories; 2-3-month-old) were anesthetized with pentobarbital and placed in a stereotaxic frame. Injection was made using a 10-μl microsyringe (Hamilton, Reno, Nev., USA). […] Control animals were prepared identically and injected with the same volume and concentration of Aβ42-1 in PBS. Injections were made at stereotaxic coordinates from bregma; antereoposterior (AP)=2.3 mm, mediolateral (ML)=2.5 mm and doroventral (DV)=−2.5 mm according to a previous report. This corresponds to a site in the dorsal hippocampus in the apical dendritic zones of the CA1 region near the hippocampal fissure. Mice were killed 10 or 20 days after injection, brains dissected out, fixed in 10% buffered-formalin and paraffin-embedded. For brain tissue sections, 6-μm-thick serial sections were cut, mounted onto slides and rehydrated according to standard protocols.
# Cultured hippocampal slices were rinsed with icecold PBS once and fixed for 2 h with 4% paraformaldehayde in 0.1M PBS. After washing with PBS, sections were permeabilized overnight with PBS containing 0.2% Triton X-100. At the end of the permeabilization blocking solution, 10% normal goat serum in PBS was applied for 4 h at room temperature. After washing with PBS, primary antibody was added and incubated for 24-48 h at 4° C. After thorough washing of the sections in PBS, a secondary antibody labeled with either Alexa Fluor (Life Technologies, Grand Island, N.Y., USA) 488 or 568 (1:300) was added and incubated for 4 h at room temperature. All of the experiments contained at least one sample incubated without a primary antibody to exclude non-specific signal. Nuclei were visualized with DAPI. Images were acquired through an AxioCam camera on an Axiovert 200M microscope (Zeiss). Images were then analyzed with the Axiovision software (Zeiss).
# Detection of 3′-OH termini of DNA strand breaks was performed using in situ cell death detection kit (Roche). Briefly, the tissue sections were treated with proteinase K (20 μg/ml in 10 mmol/l Tris-HCl, pH 7.4) for 30 min at 37° C. after rehydration. After rinsing with PBS, TUNEL reaction mixture containing terminal deoxynucleotidyl transferase and fluorescence-labeled nucleotide was applied for 1 h 37° C. The samples were then washed and mounted using Aquamount (Southern Biotech, Birmingham, Ala., USA).
# human Bax ΔTM = biological target: T2, human Bax ΔTM (Homo sapiens, UniProt Q07812); assay: Binding of recombinant proteins (pull-down on anti-Bax beads); conditions: purified recombinant proteins, IFNγR2263-337 tagged with thioredoxin (rTrx)
# T2 construct: Bax C terminal transmembrane truncated human Bax; His tag (on MBP) (N, cleaved yes); made in house
# T2 sequence (Q07812 1-171 limits assumed, stated change not applied): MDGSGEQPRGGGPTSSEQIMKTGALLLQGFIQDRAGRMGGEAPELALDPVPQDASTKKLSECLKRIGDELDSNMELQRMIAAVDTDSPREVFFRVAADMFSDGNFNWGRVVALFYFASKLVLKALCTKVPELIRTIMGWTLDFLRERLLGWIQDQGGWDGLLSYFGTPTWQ
# Text: Recombinant human Bax ΔTM (Bax C terminal transmembrane truncated human Bax) was produced by using pHMTc vector downstream of maltose binding protein (MBP), separated by the TEV protease site. Overexpressed MBP-Bax was purified through a maltose-binding column (NEB) and subsequently cleaved by TEV protease (Invitrogen), followed by Ni-affinity purification to remove the protease and the His-tagged MBP. IFNγR2 cytoplamic domain (amino acids 263 337) was fused with thioredoxin (rTrx) to increase the recovery rate from bacterial lysates. The production and the purification of this fusion protein were performed by Protein X Laboratory (San Diego, Calif.). Recombinant Bax (25 ng) was loaded onto Sepharose G beads pre-equilibrated with anti-Bax antibody (Bax B9, Santa Cruz) or pre-immune IgG (control IgG) at 4° C. for 2 h. The excess Bax molecules were washed 3 times with buffer (50 mM phosphate buffer, pH 7.4). Recombinant IFNγR2 (263-337)-rTrx (25 ng) was added to the beads preloaded with Bax and anti-Bax or control IgG. Beads and IFNγR2263-337-rTrx were incubated at 4° C. for 2 h. After the incubation, beads were extensively washed with the loading buffer (50 mM phosphate buffer, pH 7.4). Beads were boiled in Laemmli buffer, and the supernatant was collected as a sample. Samples were analyzed by western blot using anti IFNγR2 antibody (C20, Santa Cruz) and Bax (N20, Santa Cruz).
# Mouse Bax = biological target: T3, Mouse Bax (Mus musculus, UniProt Q07813); assay: Yeast-based functional screening for Bax inhibitors; type: cell-based; conditions: yeast strain EGY48, galactose-inducible mouse Bax
# T3 construct: expressed in transfected cells; host or cells: yeast strain EGY48, pGilda vector
# T3 sequence (Q07813 whole entry): as the sequence (Q07813 whole entry) above
# Description: The yeast strain EGY48 was used for the yeast functional screening for Bax inhibitors. Mouse Bax was expressed under a galactose-inducible promoter using pGilda vector as reported. Yeast expression libraries of cDNAs of mouse brain and a human cell line (HeLa) were prepared in pYES2 and pJG4-5 vectors, respectively.
# To perform a yeast-based functional screen for Bax inhibitors, yeast expression cDNA libraries were generated from purified mRNAs of human HeLa cells and mouse brain tissue using pJG4-5 and pYES2 vectors, respectively. […] IFNγR2263-337 contains a Jak2-binding domain (amino acids 284-295). To determine the role of the Jak2-binding domain in Bax inhibition, two IFNγR2 mutants were generated (FIG. 1B) and tested for their anti-Bax activity in human cells as described below.
molecule,measurement,setting,value
KLVPT [control peptide],Suppression of oligomeric Aβ-induced neuronal loss (Nissl staining),[1],failed to prevent neuronal cell death
same,Prevention of oligomeric Aβ-induced PI uptake,[1],did not affect the level of PI uptake
same,Cell permeability (green fluorescence of FITC-tagged peptide in neuronal cells),[2],equally penetrated neuronal cells
"VPTLK (also: FITC tag, site not given here) [BIP]",Suppression of oligomeric Aβ-induced conformational change of Bax (6A7),Bax; slices treated with oligomeric Aβ for 48 h,suppresses oligomeric Aβ-induced conformational change of Bax
same,Suppression of oligomeric Aβ-induced neuronal loss (Nissl staining),[1],significantly suppressed
same,Prevention of oligomeric Aβ-induced PI uptake,[1],significantly prevented PI uptake
same,Suppression of oligomeric Aβ-induced caspase-3 activation (immunoblot),[3]; peptide co-applied with oligomeric Aβ,significantly suppressed
same,Cell permeability (green fluorescence of FITC-tagged peptide in neuronal cells),[2],equally penetrated neuronal cells
oligomeric Aβ: soluble oligomeric Aβ prepared from synthetic Aβ1-42 peptide (AnaSpec),Number of 6A7-positive cells (active form of Bax),"Bax; slice cultures, 24 h after treatment",significantly increased
same,Neuronal cell death induced by oligomeric Aβ in slice culture from bax−/− mice,"[1]; bax−/− versus wild-type slices, 500 nM, 48 h",dramatically reduced
same,PI uptake / number of PI-positive cells (neuronal cell death),"[1]; wild-type slices, 500 nM, 48 h of treatment",significantly increased
same,Level of Bim in hippocampus,[4]; 10 days after injection,dramatically increased
same,Number of neurons containing the active form of Bax (6A7 antibody),[4]; 10 days after injection,dramatically increased
same,Neuronal cell death in hippocampus,"[4]; WT mouse, 20 days after intrahippocampal injection",induced neuronal cell death
same,Number of TUNEL-positive neurons,[4]; intrahippocampal injection,significantly increased
same,Level of Bax,[3]; oligomeric Aβ-treated brain slices,not affected
same,Expression of Bim,"[3]; oligomeric Aβ-treated brain slices, time-dependent",increased the expression of Bim
B1,Direct interaction with BaxΔTM,human Bax ΔTM,confirmed
same,Suppression of Bax in yeast (rescue of yeast growth from Bax expression),Mouse Bax,Bax suppressor

# Reference: patent US9458427B2, “IFNγR2 compositions and methods of inhibiting neuronal cell death” (Case Western Reserve University, priority 2009, dated 2016)
